Key:
IKZF4 Eos = biological target: T1, IKZF4 Eos (Homo sapiens, UniProt Q96SW2+Q9H2S9); assay: Human Regulatory T Cell Reprogramming Assay, IKZF4; assay type: cell-based; conditions: 12-13 days; for IKZF4 Eos max % deg. observed / Dmax: human CD4+CD127lowCD25+ Treg cells, stimulated, 100% = complete degradation; for Dmax: Regulatory T cell, human, read-out: IKZF4 Eos max % deg. observed
T1 construct: endogenous in cells; host or cells: FACS-sorted human CD4+CD127lowCD25+ Treg cells from healthy leukopaks
T1 sequence (Q9H2S9 whole entry): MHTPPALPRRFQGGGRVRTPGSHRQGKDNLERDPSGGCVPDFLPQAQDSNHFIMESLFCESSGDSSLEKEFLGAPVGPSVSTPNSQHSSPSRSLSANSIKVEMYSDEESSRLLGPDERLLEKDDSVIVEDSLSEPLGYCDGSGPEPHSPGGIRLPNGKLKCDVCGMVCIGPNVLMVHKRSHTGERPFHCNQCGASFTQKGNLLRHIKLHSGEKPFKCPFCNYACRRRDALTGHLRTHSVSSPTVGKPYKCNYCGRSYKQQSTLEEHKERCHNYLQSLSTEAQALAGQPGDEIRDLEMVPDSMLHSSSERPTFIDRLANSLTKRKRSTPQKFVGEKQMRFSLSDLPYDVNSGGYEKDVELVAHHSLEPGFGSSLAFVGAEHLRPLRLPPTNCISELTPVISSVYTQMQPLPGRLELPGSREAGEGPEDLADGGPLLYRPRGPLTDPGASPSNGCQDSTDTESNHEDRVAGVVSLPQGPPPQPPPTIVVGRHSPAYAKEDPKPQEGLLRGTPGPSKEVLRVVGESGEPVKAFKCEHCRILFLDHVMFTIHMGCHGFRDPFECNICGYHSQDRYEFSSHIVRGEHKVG
T1 sequence (Q96SW2 whole entry): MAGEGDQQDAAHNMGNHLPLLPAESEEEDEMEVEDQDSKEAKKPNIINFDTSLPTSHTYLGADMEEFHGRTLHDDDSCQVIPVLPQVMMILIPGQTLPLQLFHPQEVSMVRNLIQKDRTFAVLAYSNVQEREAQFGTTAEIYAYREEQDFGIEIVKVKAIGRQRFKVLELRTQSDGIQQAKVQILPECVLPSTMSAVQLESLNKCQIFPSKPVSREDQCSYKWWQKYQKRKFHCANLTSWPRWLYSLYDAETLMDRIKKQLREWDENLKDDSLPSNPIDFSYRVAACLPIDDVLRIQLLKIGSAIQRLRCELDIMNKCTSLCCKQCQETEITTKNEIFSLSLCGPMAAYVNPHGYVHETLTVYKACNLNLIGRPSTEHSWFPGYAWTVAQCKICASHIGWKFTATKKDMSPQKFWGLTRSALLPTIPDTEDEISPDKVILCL
T1 sequence (Q16531 whole entry partner): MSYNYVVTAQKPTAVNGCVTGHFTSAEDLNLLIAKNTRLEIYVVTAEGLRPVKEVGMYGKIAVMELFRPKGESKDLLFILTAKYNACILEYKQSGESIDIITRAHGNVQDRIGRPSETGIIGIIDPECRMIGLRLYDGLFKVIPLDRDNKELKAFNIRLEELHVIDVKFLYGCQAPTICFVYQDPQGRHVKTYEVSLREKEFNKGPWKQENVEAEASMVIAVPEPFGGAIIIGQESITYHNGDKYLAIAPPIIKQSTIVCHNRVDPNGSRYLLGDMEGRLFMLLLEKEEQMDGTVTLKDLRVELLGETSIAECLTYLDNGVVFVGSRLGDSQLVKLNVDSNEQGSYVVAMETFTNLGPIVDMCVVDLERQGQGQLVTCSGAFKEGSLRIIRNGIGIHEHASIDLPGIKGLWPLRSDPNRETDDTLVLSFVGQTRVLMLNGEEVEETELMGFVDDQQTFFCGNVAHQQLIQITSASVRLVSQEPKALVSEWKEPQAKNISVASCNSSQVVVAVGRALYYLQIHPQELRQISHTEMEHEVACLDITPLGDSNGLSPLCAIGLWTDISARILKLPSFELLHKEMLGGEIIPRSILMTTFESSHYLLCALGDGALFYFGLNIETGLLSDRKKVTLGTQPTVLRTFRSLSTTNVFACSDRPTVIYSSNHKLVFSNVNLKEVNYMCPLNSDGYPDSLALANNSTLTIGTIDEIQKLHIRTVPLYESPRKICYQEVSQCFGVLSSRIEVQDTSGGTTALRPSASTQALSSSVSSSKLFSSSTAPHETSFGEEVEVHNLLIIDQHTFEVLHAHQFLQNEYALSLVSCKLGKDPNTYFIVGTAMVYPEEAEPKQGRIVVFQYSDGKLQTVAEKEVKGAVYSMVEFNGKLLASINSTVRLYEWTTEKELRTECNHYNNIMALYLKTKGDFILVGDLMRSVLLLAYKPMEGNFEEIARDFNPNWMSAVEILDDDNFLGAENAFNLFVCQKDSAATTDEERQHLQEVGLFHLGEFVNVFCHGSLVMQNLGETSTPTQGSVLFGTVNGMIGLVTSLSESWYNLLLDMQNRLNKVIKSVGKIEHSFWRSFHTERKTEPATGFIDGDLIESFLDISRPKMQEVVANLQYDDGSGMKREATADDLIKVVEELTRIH
Description: Human CD4^+ T cells were isolated from fresh healthy leukopaks (Stemcell Technologies) using the RosetteSep Human CD4^+ T cell enrichment cocktail (Stemcell Technologies) and Ficoll density gradient centrifugation. Leukopaks were diluted with an equal volume of phosphate-buffered saline (PBS [Gibco]) supplemented with 2% fetal bovine serum (FBS, VWR Lifescience) and incubated with RosetteSep Human CD4^+ T cell enrichment cocktail for 20 minutes before layering on Ficoll-Paque Plus solution (GE Health Care). The cell-rich interface layer was harvested and washed twice with PBS supplemented with 2% FBS. Regulatory T cells were then isolated manually using the EasySep Human CD4^+CD127^lowCD25^+ Regulatory T cell isolation kit (Stemcell Technologies) according to the manufacturer's instructions. Cells were rested overnight in Roswell Park Memorial Institute (RPMI) 1640 media (Gibco) supplemented with 10% FBS, Pen/Strep (Gibco), MEM-NEAA (Gibco), and sodium pyruvate (Gibco) in a humidified incubator (37° C., 5% CO2). Cells were then stained for CD4 (clone: RPA-T4, Biolegend), CD25 (clone: 2A3, BD Biosciences), and CD127 (clone: hIL-7R-M21, BD Biosciences). CD4^+CD127^lowCD25^+ cells were sorted on a BD FACS Aria Fusion sorter to a purity of 95% or greater. Sorted cells were immediately used or cryopreserved for downstream assays.
Fresh or cryopreserved FACS-sorted CD4^+CD127^lowCD25^+ Treg cells were cultured at 25,000-50,000 cells/well of 96-well round bottom plates in RPMI 1640 media (Gibco) supplemented with 10% FBS, Pen/Strep (Gibco), MEM-NEAA (Gibco), and sodium pyruvate (Gibco). Cells were stimulated with Treg Xpander beads (Thermo Fisher) at cells-to-beads ratio of 1:4 in the presence of 500 U/mL recombinant human IL-2 (Proleukin). Compounds were added at titrated doses and cells were incubated at 37°C., 5% CO2 for 12-13 days. Recombinant human IL-2 and compound were replenished every 2-3 days during the entire culture duration. On day 12 or 13, cells were restimulated with phorbol 12-myristate 13-acetate (PMA) and ionomycin in the presence of the protein transport inhibitors brefeldin A and monensin (eBioscience Cell Stimulation Cocktail plus protein transport inhibitors, 500×, Catalog number 00-4975-93) before proceeding with flow cytometry staining and analysis.
For flow cytometry staining, cells were washed twice with flow cytometry staining buffer (Thermo Fisher) and incubated in Human Tru-stain Fc block (Biolegend) for 10 minutes before adding eFluor780 viability dye (Thermo Fisher) and surface marker antibody cocktail for 30 minutes at 4° C. Cells were then fixed and permeabilized by incubation with FoxP3 transcription factor staining buffer (Thermo Fisher) for 30 minutes at 4° C. as per the kit manufacturer's instructions. Cells were washed twice with the Perm/Wash buffer supplied in the kit as per the manufacturer's instructions and incubated overnight at 4° C. with an intracellular antibody cocktail comprised of antibodies specific for the transcription factors shown in Table C. Cells were washed twice with Perm/Wash buffer and resuspended in flow cytometry staining buffer (Thermo Fisher) prior to acquisition. Sample acquisition and analysis was performed using a BD LSRFortessa (BD Biosciences) flow cytometer. Single stain controls for each fluorochrome were prepared using UltraComp eBead Compensation Beads (Thermo Fisher). Data were analyzed using FlowJo version 10 and GraphPad Prism Software.
(§1) Table C-1 lists the maximum observed degradation of the IKZF2 protein and IKZF4 protein as measured in the Human Regulatory T Cell Reprogramming assay. The results in Table C-1 were rounded to two digits. In the Human Regulatory T Cell Reprogramming assay, a value of 100% indicated no detectable protein remaining or complete degradation of the protein; and a value of 0% indicated no detectable degradation of the protein by the test compound.

IKZF1 Ikaros = IKZF1 Ikaros (Homo sapiens, UniProt Q13422+Q96SW2); assay: Human CD8^+ T Cell Reprogramming Assay, IKZF1; assay type: cell-based; design: Cryopreserved healthy donor human peripheral blood mononuclear cells (PBMC); endogenous in cells; host or cells: human PBMC from healthy donors (CD8+ T cells by flow cytometry); conditions: human PBMC, CD8+ T cells; for Dmax: human, 24 h, read-out: IKZF1 Ikaros Maximum Observed Degradation
Sequence of IKZF1 Ikaros (Q13422 whole entry): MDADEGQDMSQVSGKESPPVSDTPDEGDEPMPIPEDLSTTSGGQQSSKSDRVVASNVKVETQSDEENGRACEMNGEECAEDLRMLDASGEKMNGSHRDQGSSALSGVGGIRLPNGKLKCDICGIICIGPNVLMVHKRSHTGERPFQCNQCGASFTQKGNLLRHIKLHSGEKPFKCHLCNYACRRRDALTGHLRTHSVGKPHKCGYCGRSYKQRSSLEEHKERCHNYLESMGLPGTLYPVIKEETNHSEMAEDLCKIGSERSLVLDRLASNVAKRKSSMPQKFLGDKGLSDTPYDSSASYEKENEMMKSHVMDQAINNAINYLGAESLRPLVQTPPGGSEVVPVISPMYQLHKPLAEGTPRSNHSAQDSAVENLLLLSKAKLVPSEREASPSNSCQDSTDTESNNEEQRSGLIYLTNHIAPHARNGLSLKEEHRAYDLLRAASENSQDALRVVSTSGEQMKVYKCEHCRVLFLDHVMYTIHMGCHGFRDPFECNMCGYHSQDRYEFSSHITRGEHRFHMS
Sequence of IKZF1 Ikaros (Q96SW2 whole entry): as the sequence (Q96SW2 whole entry) above
Sequence of IKZF1 Ikaros (Q16531 whole entry partner): as the sequence (Q16531 whole entry partner) above
Description: Cryopreserved healthy donor human peripheral blood mononuclear cells (PBMC) from healthy donors were thawed and seeded at 500,000 cells/well of 96-well round bottom plates in RPMI 1640 media (Gibco) supplemented with 10% FBS, Pen/Strep (Gibco), MEM-NEAA (Gibco), and sodium pyruvate (Gibco). Cells were treated with titrated doses of compound for 24 hours at 37° C., 5% CO2 before analyzing by flow cytometry.
For flow cytometry staining, cells were washed twice with flow cytometry staining buffer (Thermo Fisher) and incubated in Human Tru-stain Fc block (Biolegend) for 10 minutes before adding eFluor780 viability dye (Thermo Fisher) and surface marker antibody cocktail containing LD-eFluor780, CD3-BUV-395, CD4-BUV805, CD8-FITC, and CD25-BV605 for 30 minutes at 4° C. Cells were then fixed and permeabilized by incubation with permeabilization buffer (eBioscience FoxP3 buffer set 00-5523-00) for 30 minutes at 4° C. as per the kit manufacturer's instructions. Cells were washed twice with the Perm/Wash buffer supplied in the kit as per the manufacturer's instructions and incubated overnight at 4° C. with an intracellular antibody cocktail comprised of antibodies specific for the transcription factors (i.e., Foxp3-BV421, HELIOS-PE-Cy7, EOS-PE, IKAROS-PECF594, AIOLOS-AF647). Cells were washed twice with Perm/Wash buffer and resuspended in flow cytometry staining buffer (Thermo Fisher) prior to acquisition. Sample acquisition and analysis was performed using a BD LSRFortessa (BD Biosciences) flow cytometer. Single-stain controls for each fluorochrome were prepared using UltraComp eBead Compensation Beads (Thermo Fisher). Data were analyzed using FlowJo version 10 and GraphPad Prism Software.
as §1, with “D-1” for “C-1”, “IKZF1” for “IKZF2”, “IKZF3” for “IKZF4”, “CD8^+” for “Regulatory”

Row | SMILES | IKZF4 Eos max % deg. observed (IKZF4 Eos) | Dmax (IKZF1 Ikaros; 100% = complete degradation) | Dmax (IKZF4 Eos) | DC50 (IKZF4 Eos; human Treg cells, concentration reducing protein level by 50% vs DMSO) | IKZF1 Ikaros Maximum Observed Degradation (IKZF1 Ikaros; 24 hours, 100% = complete degradation, 1440 min) | DC50 (IKZF1 Ikaros; 24 hours, concentration reducing protein level by 50% vs DMSO)
1 | O=C1CCC(n2cc(-c3ccccc3)oc2=O)C(=O)N1 (centres unmarked) [Comparative Compound A, 3-(2-oxo-5-phenyloxazol-3(2H)-yl)piperidine-2,6-dione] | 0% | 74% | – | – | – | –
2 | O=C1CCC(n2cc(-c3ccc(Br)cc3F)oc2=O)C(=O)N1 (centres unmarked) [Comparative Compound B, 3-(5-(4-bromo-2-fluorophenyl)-2-oxooxazol-3(2H)-yl)piperidine-2,6-dione] | 11% | 17% | ≤ 11% | – | – | –
3 | Cc1cc(-c2ccc(-c3cn(C4CCC(=O)NC4=O)c(=O)o3)c(F)c2)nc(N)c1OC(F)F (centres unmarked) [Example 1, 3-(5-(4-(6-Amino-5-(difluoromethoxy)-4-methylpyridin-2-yl)-2-fluorophenyl)-2-oxooxazol-3(2H)-yl)piperidine-2,6-dione] | 68-71% | 68 to 69% | 68 to 71% | 0.45 nM | 69% | 64 to 94 nM

Reference: patent publication US20260327216A1, “SUBSTITUTED OXAZOLONE COMPOUND FOR DECREASING LEVELS OF IKZF I-4 PROTEINS” (BRISTOL-MYERS SQUIBB COMPANY, priority 2023, published 2026)
